Measured values: ChEMBL document CHEMBL5154828 (J Med Chem, 2022)
pIC50: −log10 of the molar value. Activity calls are given as the source filed them. No cut-off for these calls is given here.

What was measured:
[1] = Toxicity in athymic mouse xenografted with tamoxifen-sensitive human MCF7 cells assessed as body weight loss at 5 to 15 mg/kg, po qd incubated for 21 days; format: organism-based; conditions: in vivo, 504 h, dose 5-15 mg/kg, time 21 day
[2] = MRT in Sprague-Dawley rat at 10 mg/kg, po measured up to 24 hrs by LC/MS/MS analysis; format: ADME, organism-based; conditions: in vivo
[3] = Ratio of drug concentration in rat kidney to plasma at 20 mg/kg, po measured after 2 hrs
[4] = Cmax in ICR mouse at 5 mg/kg, po measured up to 24 hrs by LC/MS/MS analysis; format: ADME, organism-based; design: dose 5 mg/kg, time < 24 hrs, route po; conditions: in vivo
[5] = target: T1, Estrogen receptor (Homo sapiens) (UniProt P03372); test: Induction of ERalpha degradation in human CAMA-1 cells incubated 24 hrs by Western blot analysis; format: cell-based; conditions: dose 0.1-1000 nM, DDE = dose-dependent effect
T1 sequence (whole entry): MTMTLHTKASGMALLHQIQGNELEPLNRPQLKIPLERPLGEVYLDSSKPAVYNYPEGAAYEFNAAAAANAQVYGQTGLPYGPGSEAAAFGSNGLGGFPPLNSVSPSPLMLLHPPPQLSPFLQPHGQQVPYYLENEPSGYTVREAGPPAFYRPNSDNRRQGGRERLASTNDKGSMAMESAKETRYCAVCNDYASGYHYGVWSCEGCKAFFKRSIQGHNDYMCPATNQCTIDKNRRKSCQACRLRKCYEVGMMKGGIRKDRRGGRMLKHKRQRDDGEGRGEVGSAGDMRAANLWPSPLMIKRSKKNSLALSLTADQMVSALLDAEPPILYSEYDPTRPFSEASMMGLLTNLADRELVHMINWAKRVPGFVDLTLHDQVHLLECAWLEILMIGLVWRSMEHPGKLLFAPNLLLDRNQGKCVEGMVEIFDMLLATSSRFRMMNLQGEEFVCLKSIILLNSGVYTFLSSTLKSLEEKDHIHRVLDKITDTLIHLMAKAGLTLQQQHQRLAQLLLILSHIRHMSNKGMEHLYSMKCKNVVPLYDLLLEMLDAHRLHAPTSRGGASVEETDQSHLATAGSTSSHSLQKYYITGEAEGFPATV

[6] = Antiproliferative activity against human MCF-7/TAMR-1 cells assessed as inhibition of cell growth measured after 8 days by cell titre glo luminescence assay; conditions: MCF-7/TAMR-1, 192 h
[7] = target: Estrogen receptor (Homo sapiens, UniProt P03372, D538G); test: Antagonist activity at ERalpha D538G mutant degradation in human SK-BR-3 cells incubated for 24 hrs in presence of beta-estradiol by luciferase gene assay; format: cell-based
[8] = Cmax in Sprague-Dawley rat at 10 mg/kg, po measured up to 24 hrs by LC/MS/MS analysis; format: ADME, organism-based; design: time < 24 hrs, dose 10 mg/kg, route po; conditions: in vivo
[9] = test system: CAMA-1; test: Antiproliferative activity against human CAMA-1 cells assessed as inhibition of cell growth measured after 8 days by cell titre glo luminescence assay; format: functional, cell-based; conditions: time 8.0 day
[10] = Tmax in ICR mouse at 5 mg/kg, po measured up to 24 hrs by LC/MS/MS analysis; format: ADME, organism-based; conditions: in vivo
[11] = Drug concentration in rat uterus at 20 mg/kg, po measured after 2 hrs; format: ADME, organism-based; conditions: female, read-out: Ct
[12] = Drug concentration in rat liver at 20 mg/kg, po measured after 2 hrs; format: ADME, organism-based; conditions: read-out: Ct
[13] = Elimination half life in Sprague-Dawley rat at 10 mg/kg, po measured up to 24 hrs by LC/MS/MS analysis; format: ADME, organism-based; conditions: in vivo, read-out: beta t1/2 (converted)
[14] = Clearance in ICR mouse at 2 mg/kg, iv measured up to 24 hrs by LC/MS/MS analysis; format: ADME, organism-based; conditions: in vivo
[15] = Tmax in Sprague-Dawley rat at 10 mg/kg, po measured up to 24 hrs by LC/MS/MS analysis; format: ADME, organism-based; conditions: in vivo
[16] = test system: Estrogen receptor (Homo sapiens), P03372 [Y537S]; test: Induction of ERalpha Y537S mutant degradation in human MCF7 cells at 10 to 100 nM incubated for 4 hrs by Western blot analysis; format: cell-based; conditions: dose 10-100 nM
[17] = Drug concentration in rat plasma at 20 mg/kg, po measured after 2 hrs; format: ADME, organism-based
[18] = Ratio of drug concentration in rat breast to plasma at 20 mg/kg, po measured after 2 hrs
[19] = Elimination half life in ICR mouse at 2 mg/kg, iv measured up to 24 hrs by LC/MS/MS analysis; format: ADME, organism-based; conditions: in vivo, read-out: beta t1/2 (converted)
[20] = AUC (0 to t) in Sprague-Dawley rat at 10 mg/kg, po measured up to 24 hrs by LC/MS/MS analysis; format: ADME, organism-based; design: time < 24 hrs, dose 10 mg/kg, route po; conditions: in vivo
[21] = Cmax in ICR mouse at 2 mg/kg, iv measured up to 24 hrs by LC/MS/MS analysis; format: ADME, organism-based; design: dose 2 mg/kg, time < 24 hrs, route iv; conditions: in vivo
[22] = Oral bioavailability in ICR mouse at 5 mg/kg measured up to 24 hrs by LC/MS/MS analysis; format: ADME, organism-based; conditions: in vivo
[23] = MRT in ICR mouse at 2 mg/kg, iv measured up to 24 hrs by LC/MS/MS analysis; format: ADME, organism-based; conditions: in vivo
[24] = test system: MCF7; test: Antiproliferative activity against human MCF7 cells assessed as inhibition of cell growth measured after 6 days by cell titre glo luminescence assay; conditions: MCF7, 144 h
[25] = Elimination half life in ICR mouse at 5 mg/kg, po measured up to 24 hrs by LC/MS/MS analysis; format: ADME, organism-based; conditions: in vivo, read-out: beta t1/2 (converted)
[26] = target: T1, Estrogen receptor (Homo sapiens); test: Induction of ERalpha degradation in human T47D cells incubated 24 hrs by Western blot analysis; format: cell-based; conditions: dose 0.1-1000 nM, DDE = dose-dependent effect
[27] = Volume of distribution at steady state in ICR mouse at 2 mg/kg, iv measured up to 24 hrs by LC/MS/MS analysis; format: ADME, organism-based; conditions: in vivo, read-out: Vdss
[28] = Ratio of drug concentration in rat ovary to plasma at 20 mg/kg, po measured after 2 hrs; conditions: female
[29] = target: T1, Estrogen receptor (Homo sapiens); test: Induction of ERalpha degradation in human MCF7 cells at 5 uM incubated 24 hrs by Western blot analysis; format: cell-based
[30] = Drug concentration in rat kidney at 20 mg/kg, po measured after 2 hrs; format: ADME, organism-based; conditions: read-out: Ct
[31] = test system: MCF7; test: Antitumor activity against tamoxifen-sensitive human MCF7 cells xenografted in athymic mouse assessed as reduction in tumor growth at 15 mg/kg, po qd measured after 21 days; conditions: 504 h, read-out: TGI
[32] = target: Estrogen receptor beta (Homo sapiens, UniProt Q92731); test: Antagonist activity at ERbeta expressed in HEK293/Gal4 cells incubated for 24 hrs in presence of di-arylpropionitrile by luciferase reporter gene assay
[33] = test system: BT-474; test: Antiproliferative activity against human BT-474 cells assessed as inhibition of cell growth measured after 7 days by cell titre glo luminescence assay; format: functional, cell-based; conditions: time 7.0 day
[34] = AUC (0 to t) in ICR mouse at 2 mg/kg, iv measured up to 24 hrs by LC/MS/MS analysis; format: ADME, organism-based; design: dose 2 mg/kg, time < 24 hrs, route iv; conditions: in vivo
[35] = Drug concentration in rat blood at 20 mg/kg, po measured after 2 hrs; format: ADME, organism-based; conditions: whole blood, read-out: Ct
[36] = Ratio of drug concentration in rat uterus to plasma at 20 mg/kg, po measured after 2 hrs; conditions: female

Sequence of Estrogen receptor beta (Q92731 whole entry, the tested form may be a part): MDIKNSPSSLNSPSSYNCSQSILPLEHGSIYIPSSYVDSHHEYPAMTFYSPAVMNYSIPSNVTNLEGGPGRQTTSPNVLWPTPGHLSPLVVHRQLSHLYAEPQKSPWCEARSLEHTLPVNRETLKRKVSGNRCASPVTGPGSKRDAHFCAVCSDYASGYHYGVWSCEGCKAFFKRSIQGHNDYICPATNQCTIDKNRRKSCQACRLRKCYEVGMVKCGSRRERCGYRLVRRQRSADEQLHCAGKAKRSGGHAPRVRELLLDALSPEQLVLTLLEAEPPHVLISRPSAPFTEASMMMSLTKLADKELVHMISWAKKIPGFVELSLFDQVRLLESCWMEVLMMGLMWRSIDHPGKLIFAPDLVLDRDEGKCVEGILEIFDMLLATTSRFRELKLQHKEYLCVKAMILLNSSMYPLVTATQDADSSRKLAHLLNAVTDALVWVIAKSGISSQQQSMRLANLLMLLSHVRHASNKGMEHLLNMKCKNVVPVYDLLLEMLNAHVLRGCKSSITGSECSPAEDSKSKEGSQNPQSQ
Sequence of Estrogen receptor (P03372 whole entry D538G): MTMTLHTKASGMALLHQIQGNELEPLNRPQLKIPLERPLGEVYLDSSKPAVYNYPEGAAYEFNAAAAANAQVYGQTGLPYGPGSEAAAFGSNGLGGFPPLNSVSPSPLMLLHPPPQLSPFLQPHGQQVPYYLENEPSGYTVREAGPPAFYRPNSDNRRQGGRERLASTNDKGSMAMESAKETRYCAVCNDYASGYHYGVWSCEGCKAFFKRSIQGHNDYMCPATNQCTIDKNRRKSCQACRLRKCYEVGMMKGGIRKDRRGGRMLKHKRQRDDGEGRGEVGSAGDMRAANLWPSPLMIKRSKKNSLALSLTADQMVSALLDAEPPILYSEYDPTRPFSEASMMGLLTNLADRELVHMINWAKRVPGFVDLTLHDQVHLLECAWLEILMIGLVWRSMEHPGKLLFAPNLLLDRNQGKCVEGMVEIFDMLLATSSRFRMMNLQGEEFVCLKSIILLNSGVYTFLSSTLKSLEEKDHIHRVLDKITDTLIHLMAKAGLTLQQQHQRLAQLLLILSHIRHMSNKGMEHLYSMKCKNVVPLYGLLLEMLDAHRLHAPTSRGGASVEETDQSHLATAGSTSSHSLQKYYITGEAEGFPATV
Sequence of Estrogen receptor (Homo sapiens), P03372 [Y537S] (P03372 whole entry Y537S): as the sequence (P03372 whole entry D538G) above, with Y537S, G538D counted along it

CC(F)(F)c1cc(Cl)ccc1-c1sc2c(ccc3[nH]ncc32)c1Oc1ccc(OC2CN(CCCF)C2)cc1
Activity [1]: Non-Toxic
MRT [2]: 7 h
Kp at 2 h [3]: 11.7
Cmax [4]: 768 ng/mL
Activity [5]: Dde
pIC50 [6]: 8.49
pIC50 [7]: 7.79
Cmax [8]: 340 ng/mL
Activity [9]: Active
Tmax [10]: 2.7 h
concentration at 2 h [11]: 2170 ng/mL
concentration at 2 h [12]: 212000 ng/mL
half-life [13]: 4.6 h
clearance [14]: 7 mL/min/kg
Tmax [15]: 3.3 h
Activity [16]: Active
concentration at 2 h [17]: 609 ng/mL
Kp at 2 h [18]: 4
half-life [19]: 4.6 h
AUC(0-t) at 24 h [20]: 3180 ng·h/mL
Cmax [21]: 764 ng/mL
bioavailability [22]: 67%
MRT [23]: 6.4 h
pIC50 [24]: 9.00
half-life [25]: 5.7 h
Activity [26]: Dde
Vd [27]: 2.7 L/kg
Kp at 2 h [28]: 7.3
Activity [29]: Active
concentration at 2 h [30]: 7100 ng/mL
inhibition in vivo at 15 mg/kg [31]: -17%
pIC50 [32]: 8.64
Activity [33]: Active
AUC(0-t) at 24 h [34]: 4630 ng·h/mL
concentration at 2 h [35]: 480 ng/mL
Kp at 2 h [36]: 3.6
